This is an account of results in patent US20020009527A1, “CONTAMINATION-RESISTANT ANIMAL FEEDSTUFFS” (BOBBY J BLAND, priority 1992, published 2002).

Read-outs that look alike come from different tables or passages of the source.

For assay [1], the system named is Escherichia coli. The conditions noted are these: fine mist (43 microns); all quantity levels. The procedure: A sterilized poultry starter mash (500 grams/treatment quantity level) was treated with 37 wt. % formaldehyde solution in quantities of 0.66, 1.33 and 2.00 pounds dry weight of formaldehyde per ton. One set of samples was treated with a coarse spray (270 microns) at 1.8 gal/hr and another was treated with fine mist (43 microns) at 25.5 gal/hr. Each sample of 500 grams was challenged with 20 ml of a liquid inoculum of Escherichia coli (10^6 colonies/ml) one week after treatment.

The conditions of assay [2]: 1.0 pound formaldehyde (dry wt.) per ton of feed. How it is done:
Chickens (1,400,000 broilers) were raised with steam pelletized formaldehyde-treated feed and 250,000 broilers were raised with conventional steam pelletized feed. This test was conducted from the time the chicks were a day old until market weight which is 7 to 8 weeks.

The subject of another assay is Salmonella typhimurium. The conditions noted are these: hydraulic nozzle; 1.32 lb/ton; inoculated after 7 days storage; 24 h incubation.
Assay [3] concerns Escherichia coli.
Experimental: Poultry starter mash (8000 g) was distributed in one gallon glass jars (2000 g/jar). The mash was autoclaved at 121° C. and 15 psi for one hour on two consecutive days. The sterile poultry starter mash was mixed thoroughly and subsampled using a Humboldt sample splitter to obtain seven 500 g subsamples. […] After treatment the samples were stored at 24° C. for 7 days prior to the recontamination.
The identity of an isolate of Escherichia coli obtained from poultry feed was confirmed by biochemical and serological tests. The isolate was used to inoculate milk dilution bottles containing 90 ml of nutrient both. The inoculated bottles were incubated at 35° C. for 18-24 hours. After incubation the contents of several milk dilution bottles were combined in a sterile 1000 ml Erlenmeyer flask, mixed and the level of Escherichia coli determined by serially diluting the nutrient broth with buffered phosphate. The dilutions were plated onto MacConkey's agar. The inoculated plates were incubated at 35° C. for 18-24 hours. After incubation, the number of E. coli colonies was counted.
After seven days of storage, the subsamples (500 g) were individually inoculated with 20 ml of a nutrient broth culture of E. coli (10^6 colonies/ml). The inoculated feed was transferred to sterile one quart containers with screw cap lids. After 24 hours incubation at 25° C., the treatment samples were split to obtain log subsamples. Each subsample was placed into a milk dilution bottle containing 90 ml of buffered phosphate. The bottles were placed on a wrist action shaker and agitated for 30 minutes. The samples were serially diluted with buffered phosphate and the dilutions plated onto MacConkey's agar (MA) or Hektoen Enteric agar (HEA). The inoculated plates were incubated at 35° C. for 18-24 hours. After incubation, the number of E. coli colonies was counted. […] In this procedure a 25 g subsample was incubated in 225 ml lactose broth for 18-20 hours at 35° C. The inoculated broth was streaked on plates of MacConkey's agar and incubated for 24 hours at 35° C.
The procedure of Example 8 was repeated using an inoculum containing 10^4 colonies/ml of E. coli.
The subject of a further assay is E. coli. The procedure: The term “resistant to contamination by pathogenic bacteria” means that a challenge with 1000 colonies per gram of feed results in death of substantially all the bacteria within 48 to 72 hours. […] Sampling procedures for obtaining representative samples of feed are described in Example 16, so that the coefficient of variation can be readily determined.

Experimental for Salmonella typhimurium: Poultry starter mash was distributed in one gallon glass jars (2000 g/jar). The mash was autoclaved at 121° C. and 15 psi for one hour on two consecutive days. The sterile poultry starter mash was mixed thoroughly and subsampled using a Humboldt sample splitter to obtain seven 500 g subsamples. […] After treatment the samples were stored in paper bags at 24° C. prior to the recontamination.
An isolate of Salmonella typhimurium was obtained from poultry feed and was serotyped by the United States Department of Agriculture (USDA) National Veterinary Services Laboratory in Ames, Iowa. The isolate was used to inoculate milk dilution bottles containing 90 ml of nutrient broth. The inoculated bottles were incubated at 35° C. for 18-24 hours. After incubation, the contents of several milk dilution were combined in a sterile 1000 ml Erlenmeyer flask and mixed. The level of Salmonella typhimurium was determined by serially diluting the nutrient broth with buffered phosphate solution and the dilutions plated on modified lysine iron agar. The inoculated plates were incubated at 35° C. for 18-24 hours. After incubation, the number of Salmonella typhimurium colonies was counted.
After 7 days of storage, the subsamples of poultry starter mash (500 g) were individually inoculated with 20 ml of the nutrient broth culture of S. typhimurium (10^3 colonies/gram). […]

Regarding `C=O` [Formaldehyde, formaldehyde], the “further time free of detectable E. coli (test then discontinued)” value with Escherichia coli [1] is recorded as 60 days. Besides, the “time after inoculation until free of detectable E. coli” value in the assay with Escherichia coli [1] was at most 48 h. In assay [2] (broilers, day old to market weight (7 to 8 weeks)), this molecule came in with an MORTALITY of 6%. In addition, the “FEED CONVERSION” value in assay [2] (pounds of feed required to produce one pound live weight gain) worked out at 2.25. Also, the “S. typhimurium colonies per gram of feed” value with Salmonella typhimurium is on record as 2.94 × 10^2 COLONIES/GRAM. Also, the E. coli colonies/g in the assay on Escherichia coli [3] (atomizing nozzle, 0.66 lb/ton, inoculum 10^6 colonies/ml (Example 8)) is 1.11 × 10^2 COLONIES/GRAM; in the assay on Escherichia coli [3] (hydraulic nozzle, 0.66 lb/ton, inoculum 10^4 colonies/ml (Example 9)), 8.78 × 10^3 COLONIES/GRAM; in the assay on Escherichia coli [3] (hydraulic nozzle, 0.66 lb/ton, inoculum 10^6 colonies/ml (Example 8)), 2.74 × 10^5 COLONIES/GRAM; with Escherichia coli [3] (hydraulic nozzle, 1.32 lb/ton, inoculum 10^4 colonies/ml (Example 9)), 4.33 × 10^3 COLONIES/GRAM; in the assay on Escherichia coli [3] (hydraulic nozzle, 1.32 lb/ton, inoculum 10^6 colonies/ml (Example 8)) it was 3.67 × 10^3 COLONIES/GRAM; in the assay with Escherichia coli [3] (hydraulic nozzle, 2.00 lb/ton, inoculum 10^4 colonies/ml (Example 9)), 3.33 × 10^2 COLONIES/GRAM. In addition, the E. coli colonies/g in the assay with Escherichia coli [3] (hydraulic nozzle, 2.00 lb/ton, inoculum 10^6 colonies/ml (Example 8)) is reported as 1.04 × 10^2 COLONIES/GRAM. Also, the “resistance to contamination (time)” value was “about 60 days” with E. coli (2 lbs. dry wt. of formaldehyde/ton, 2.0% CV) and “about 30 days” in the assay with E. coli (4 lbs. dry wt. of formaldehyde per ton of finished feed, 7% CV).
